# The source made the active and inactive calls. The calls are words filed in the database; no cut-off is given here.
# Experiments:
# Salmonella typhimurium [1] = assay: Antimutagenic activity in Salmonella Typhimurium TA102 assessed as inhibition of H2O2-induced mutagenesis at 0.05 to […] after 48 hrs by Ames test; type: functional, organism-based; conditions: Salmonella enterica subsp. enterica serovar Typhimurium
# MCF7 [2] = assay: Cytotoxicity against human MCF7 at 25 ug/ml after 72 hrs by MTT assay; type: functional, cell-based; conditions: MCF7, 72 h
# RPMI-8226 [3] = assay: Cytotoxicity against human RPMI8226 at 25 ug/ml after 72 hrs by MTT assay; type: functional; conditions: RPMI-8226, 72 h
# Salmonella typhimurium [4] = assay: Antimutagenic activity in Salmonella Typhimurium TA102 assessed as inhibition of H2O2-induced mutagenesis at 26.9 uM after 48 hrs by Ames test; type: functional, organism-based, Salmonella enterica subsp. enterica serovar Typhimurium
# MCF7 [5] = assay: Cytotoxicity against human MCF7 after 72 hrs by MTT assay; type: functional, cell-based
# [6] = Cytotoxicity against mouse LMTK at 173 uM after 72 hrs by MTT assay
# RPMI-8226 [7] = assay: Cytotoxicity against human RPMI8226 after 72 hrs by MTT assay; type: functional, cell-based
# Salmonella typhimurium [8] = assay: Antimutagenic activity in Salmonella Typhimurium TA102 assessed as inhibition of H2O2-induced mutagenesis at 23.5 uM after 48 hrs by Ames test; type: functional, Salmonella enterica subsp. enterica serovar Typhimurium; conditions: Salmonella enterica, TA102, 48 h
SMILES,Activity (Salmonella typhimurium [1]),inhibition at 25 µg/mL (MCF7 [2]),inhibition at 25 µg/mL (RPMI-8226 [3]),Inhibition (Salmonella typhimurium [4]),IC50 (MCF7 [5]),IC50 [6],IC50 (RPMI-8226 [7]),inhibition at 23.5 µM (Salmonella typhimurium [8])
CCCCNC1=C(F)C(=O)c2c(F)c(NCCCC)c(F)c(F)c2C1=O,Active,10%,17%,81%,,,,
CC1=C(SCCO)C(=O)c2c(F)c(F)c(F)c(F)c2C1=O,,,,,173 µg/mL,Not Active,14.8 µg/mL,
CCCCNC1=C(F)C(=O)c2c(F)c(NCCCC)c(F)c(NCCCC)c2C1=O,Active,45%,30%,,,,,55%
